Results from patent US20130158024A1, “TRICYCLIC NECROSTATIN COMPOUNDS” (priority 2005, published 2013).
“Also recorded” adds a separate entry of the source.

How the values were obtained:
Jurkat T cells = experiment: Necrosis (CICD) of Jurkat T cells induced by Fas ligand, cycloheximide and zVAD, ATP assay; format: cell-based, human; conditions: FasL/CHX/zVAD
Description: Jurkat cells were treated with 5 ng/ml of FasL without (A) or with cyclohexamide (CHX) (B) to induce apoptosis, or 5 ng/ml FasL, 1 μg/ml of CHX and 100 μM of zVAD.fmk to induce CICD (B). […] Cell viability was determined after 24 hours of incubation with indicated reagents using CellTiter-Glo ATP assay. The values represent viability relative to the control Jurkat cells without the treatment of FasL, which was set as 100% viability.
FIG. 34A is a graph showing the results of treating Jurkat T cells with Fas ligand (5 ng/ml), cyclohexamide (1 μg/ml) and zVAD (100 μM) in the presence of the indicated amounts of anti-necrotic compounds (4) and (5). Viability was determined 36 hours later using an ATP assay. The viability values are relative to the samples lacking Fas ligand, which were used as 100% viability controls. FIG. 34B is a graph as in FIG. 34A, in which the anti-necrotic compounds are (19) and (20).
Compounds were also tested in another necrosis assay utilizing human Jurkat T cells, Fas ligand to induce cell death, and zVAD to inhibit the apoptosis pathway. After 36 hours, cell viability was measure by the commercial CellTiter ATP cell viability assay (Promega).

L929 cells = experiment: TNFα-induced CICD of L929 cells, ATP assay; format: cell-based, mouse; conditions: no caspase inhibitor
Description: Cell viability was determined using ATP-Lite-M ATP assay (Packard). The values represent viability relative to the control lacking TNFα, which was set as 100% viability.
Cell viability in this and subsequent panels was determined by ATP-based viability assay. Numbers represent percentages of the live cells normalized to those in the untreated control wells. Throughout, error bars represent standard deviations. […] Numbers represent viability normalized to that of the corresponding compound-treated cells in the absence of FasL. […] Numbers represent viability normalized to that of the corresponding compound-treated cells in the absence of dimerizer. […] Cells were treated with TNFα (E, F, H), zVAD.fmk (E, F), or CHX (F) for 16 (F) or 24 (E, H) hours. Numbers represent viability normalized to that of the compound-treated cells in the absence of TNFα.

BALB/c 3T3 cells = experiment: CICD of BALB/c 3T3 cells induced by TNFα/zVAD.fmk; format: cell-based, mouse
primary cortical neurons = experiment: Oxygen-glucose deprivation (OGD) induced death of primary cortical neurons, MAP2 cytoblot; format: cell-based; conditions: OGD 90 minutes, 24 hours recovery; 30 μM
Description: Cells were allowed to recover in the presence of the compounds (except for the CNQX/MK801) for 24 hours, and specific neuronal viability was determined using MAP2 cytoblot. Values represent the percentages of live cells normalized to the compound treated cells, which were maintained in glucose-containing, non-deoxygenated media. **—P<0.02. […] Cells were allowed to recover in the presence of the compounds for 24 hours, and specific neuronal viability was determined using MAP2 cytoblot. Values represent the percentages of live cells normalized to the compound treated cells, which were maintained in glucose-containing, non-deoxygenated media. **—P<0.04.

U937 cells = experiment: Oxidative stress (menadione) induced death of U937 cells, ATP assay; format: cell-based, human; conditions: 250 μM menadione, 24 hours
Description: Viability of TNFα/zVAD/DMSO or manadione/DMSO blank treated cells is also shown (- - -). Viability was determined using ATP-Lite-M assay (Packard). Numbers represent percentages of live cells. The values were normalized relative to the zVAD or DMSO treated controls, which were set as 100% viability.
In this and subsequent panels, cell viability was determined via ATP assay. Numbers represent viability normalized to that of the DMSO-treated cells in the absence of TNFα and menadione. Throughout, error bars represent standard deviations. […] Representative images are shown. […] Protein lysates were subjected to western blotting with antibodies to LC3 and to tubulin. The ratio of LC3-II to tubulin signals was calculated (“Ratio”) and normalized to the value in the control sample. […] Alternatively, cells were treated with 2 μM rapamycin. […] Numbers represent viability normalized to that of the compound-treated cells in the absence of TNFα. In FIG. 28H, expression of beclin-1 (“Bec”) and tubulin (“Tub”) in the stable populations of cells in FIG. 28G was analyzed by western blotting.

[1] = test system: Jurkat cells expressing dimerizable FADD; conditions: dimerizer and zVAD.fmk, 48 hours

methylthiohydantoin-tryptophane [Nec-1]
inhibition of CICD/necrosis of Jurkat cells, in words (Jurkat T cells): protected against CICD induced by FasL/CHX/zVAD; also recorded: efficiently inhibited by Nec-1; also recorded: inhibited all published examples of necrotic cell death induced by DR activation in the presence of caspase inhibitors
protection of L929 cells from TNFα-induced CICD, in words (L929 cells): protects L929 cells from CICD; also recorded: unlike Nec-1; also recorded: efficiently inhibited the TNFα-induced necrotic death of L929 cells
inhibition of CICD in 3T3 cells, in words (BALB/c 3T3 cells): inhibited all published examples of necrotic cell death induced by DR activation in the presence of caspase inhibitors
protection from OGD-induced neuronal death, in words (primary cortical neurons): protects primary cortical neurons from oxygen-glucose deprivation induced cell death; also recorded: attenuated OGD-induced death of cortical neurons
protection from menadione induced cell death, in words (U937 cells): did not block the “classic” oxidative stress-induced necrosis caused by menadione
inhibition of necrotic death, in words [1]: inhibited all published examples of necrotic cell death induced by DR activation in the presence of caspase inhibitors
